Experimental data: patent publication US20230192661A1, “1, 4, 5, 6-TETRAHYDROPYRIMIDINE-2-AMINE DERIVATIVE” (UBE Corporation, priority 2020, published 2023)

Columns and labels:
[1] = molecular target: T1, αvβ1 (UniProt G3HZ55+P06756); experiment: αvβ1 cell adhesion inhibition test (αv-transfected CHO cells on human fibronectin); format: cell-based; conditions: human fibronectin coating, 1 mM MnCl2, 1 hour, read-out: IC50 (rate of inhibition of cell adhesion, αvβ1)
T1 construct: expressed in transfected cells; host or cells: CHO cells deficient in α5 gene, transfected with αv gene
Description: Test Example 1 was performed by partially modifying the method of Reed et al. (Sci Transl Med., 7 (288), 288ra79, 2015).
Human fibronectin (manufactured by Sigma-Aldrich Co. LLC, F0895) was prepared at 1.25 μg/mL with phosphate buffered saline (PBS), dispensed at 100 μL/well to a 96-well plate, and left standing overnight. The plate was washed with Hanks' balanced salt solution (HBSS), then subjected to blocking treatment with Dulbecco's modified Eagle medium (DMEM) containing 1% bovine serum-derived albumin (BSA) (FUJIFILM Wako Pure Chemical Corp., for cell culture, 017-22231), and used as a coated plate in the adhesion test.
αv-transfected cells (CHO cells deficient in α5 gene and transfected with αv gene) cultured in Ham's F-12 medium (FUJIFILM Wako Pure Chemical Corp., 087-08335) containing 10% fetal bovine serum (FBS), 1% penicillin/streptomycin/amphotericin B (manufactured by Thermo Fisher Scientific, Inc., 15240), 1 mM GlutaMAX Supplement (manufactured by Thermo Fisher Scientific, Inc., 35050), and 400 μg/mL hygromycin B (FUJIFILM Wako Pure Chemical Corp., 080-07683) were recovered and suspended in DMEM containing 1 mM MnCl2 (manufactured by Sigma-Aldrich Co. LLC, M1787) to prepare a cell suspension. A test compound dissolved in DMSO was added thereto.
(§1) The cell suspension of 1×10^6 cells/mL containing the test compound was added at 100 μL/well to the coated plate and left standing for 1 hour in a 5% CO2 incubator (37° C.). One hour later, the supernatant was removed, and the plate was washed with HBSS. The cells that adhered to each well in the plate were stained with crystal violet, and the cells were lysed, followed by absorbance measurement. Inhibition without substrate coating was defined as 100% inhibition, and inhibition when DMSO was added instead of the test compound was defined as 0% inhibition. The rate of inhibition of cell adhesion by the test compound was calculated according to the following expression.
Rate of inhibition of cell adhesion (%)=[1−{(Absorbance in the case of adding the test compound)−(Absorbance without substrate coating)}/{(Absorbance in the case of adding DMSO)−(Absorbance without substrate coating)}]×100
(§2) An IC50 value was calculated from the rate of inhibition of cell adhesion by the test compound. A: IC50<3 nM, B: 3 nM≤IC50<10 nM, C: 10 nM≤IC50<30 nM, D: 30 nM≤IC50<100 nM, or E: IC50≥100 nM.

[2] = molecular target: T2, αvβ6 (Homo sapiens, UniProt P06756+P18564); experiment: αvβ6 cell adhesion inhibition test (HT-29 cells on recombinant human LAP protein); format: cell-based; conditions: recombinant human LAP coating, 200 μM MnCl2, 1 hour, read-out: IC50 (rate of inhibition of cell adhesion, αvβ6)
T2 construct: endogenous in cells; host or cells: HT-29 cells
Description: Test Example 2 was performed by partially modifying the method of Henderson et al. (Nat Med., 19 (12), 1617-24, 2013). In Test Example 2, the same reagents as in Test Example 1 were used unless otherwise specified.
Recombinant human LAP protein (manufactured by R&D Systems, Inc., 246-LP-025) was prepared at […] with PBS, dispensed at 100 μL/well to a 96-well plate, and left standing overnight. The plate was washed with HBSS, then subjected to blocking treatment with DMEM containing 1% BSA, and used as a coated plate in the adhesion test.
HT-29 cells cultured in McCoy's 5A medium (manufactured by Thermo Fisher Scientific, Inc., 16600) containing 10% FBS and 1% penicillin/streptomycin/amphotericin B were recovered and suspended in DMEM containing 0.1% BSA and 200 μM MnCl2 to prepare a cell suspension. A test compound was added thereto.
as §1, with “5×10^5” for “1×10^6”, “HBSS containing 200 μM MnCl2.” for “HBSS.”
Rate of inhibition of cell adhesion (%)=[1−{(Absorbance in the case of adding the test compound)−(Absorbance without substrate coating)}/{(Absorbance in the case of adding DMS)−(Absorbance without substrate coating)}]×100
as §2

T2 sequence (P06756 31-889 limits assumed): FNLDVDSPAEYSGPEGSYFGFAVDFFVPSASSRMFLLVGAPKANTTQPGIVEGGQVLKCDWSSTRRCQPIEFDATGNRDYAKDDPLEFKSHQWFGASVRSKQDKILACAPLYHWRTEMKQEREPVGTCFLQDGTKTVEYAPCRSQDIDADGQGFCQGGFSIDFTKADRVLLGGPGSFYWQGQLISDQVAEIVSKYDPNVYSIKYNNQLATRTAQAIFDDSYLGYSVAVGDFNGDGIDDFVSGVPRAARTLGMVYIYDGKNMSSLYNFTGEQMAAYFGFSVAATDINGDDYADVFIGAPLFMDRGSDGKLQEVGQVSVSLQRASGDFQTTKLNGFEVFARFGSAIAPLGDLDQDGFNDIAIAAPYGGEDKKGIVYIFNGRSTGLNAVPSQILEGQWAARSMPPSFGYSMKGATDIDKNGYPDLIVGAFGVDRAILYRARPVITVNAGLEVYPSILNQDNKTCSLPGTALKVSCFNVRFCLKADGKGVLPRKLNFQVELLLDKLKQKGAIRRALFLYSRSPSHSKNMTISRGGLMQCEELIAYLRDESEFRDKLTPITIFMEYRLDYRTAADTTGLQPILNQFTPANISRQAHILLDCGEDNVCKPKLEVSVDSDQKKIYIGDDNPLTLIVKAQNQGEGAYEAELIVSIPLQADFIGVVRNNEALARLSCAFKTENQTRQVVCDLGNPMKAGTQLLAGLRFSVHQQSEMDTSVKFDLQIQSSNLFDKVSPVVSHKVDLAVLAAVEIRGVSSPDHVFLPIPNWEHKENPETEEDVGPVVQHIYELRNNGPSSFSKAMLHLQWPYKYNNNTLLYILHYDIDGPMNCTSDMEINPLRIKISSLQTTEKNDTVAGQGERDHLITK
T2 sequence (P06756 891-1048 limits assumed): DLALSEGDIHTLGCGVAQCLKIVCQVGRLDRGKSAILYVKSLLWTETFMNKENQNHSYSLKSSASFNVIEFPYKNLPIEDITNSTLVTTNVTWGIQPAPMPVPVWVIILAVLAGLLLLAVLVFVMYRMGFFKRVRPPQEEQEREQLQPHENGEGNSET
T2 sequence (P18564 22-788): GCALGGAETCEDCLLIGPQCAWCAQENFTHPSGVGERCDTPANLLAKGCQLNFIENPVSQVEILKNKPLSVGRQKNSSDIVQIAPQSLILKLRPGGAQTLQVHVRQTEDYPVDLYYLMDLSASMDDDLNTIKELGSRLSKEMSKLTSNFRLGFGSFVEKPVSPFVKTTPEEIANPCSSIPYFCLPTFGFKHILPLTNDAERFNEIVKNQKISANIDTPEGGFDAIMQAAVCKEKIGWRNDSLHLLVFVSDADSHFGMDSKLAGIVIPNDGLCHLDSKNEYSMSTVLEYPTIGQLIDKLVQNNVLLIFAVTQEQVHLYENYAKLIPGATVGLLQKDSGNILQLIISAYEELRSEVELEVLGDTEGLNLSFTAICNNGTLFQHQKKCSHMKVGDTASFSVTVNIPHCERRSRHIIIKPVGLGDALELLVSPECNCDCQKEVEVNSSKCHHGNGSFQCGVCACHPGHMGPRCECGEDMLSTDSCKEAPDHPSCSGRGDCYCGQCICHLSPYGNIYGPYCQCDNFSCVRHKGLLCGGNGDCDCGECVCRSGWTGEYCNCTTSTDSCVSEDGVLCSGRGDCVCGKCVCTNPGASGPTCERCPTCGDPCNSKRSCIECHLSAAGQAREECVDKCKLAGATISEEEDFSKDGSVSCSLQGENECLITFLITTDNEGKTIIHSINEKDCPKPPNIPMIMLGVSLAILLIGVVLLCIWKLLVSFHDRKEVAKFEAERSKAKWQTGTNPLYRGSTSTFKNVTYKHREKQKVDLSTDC
T1 sequence (P06756 31-889 limits assumed): as the sequence (P06756 31-889 limits assumed) above
T1 sequence (P06756 891-1048 limits assumed): as the sequence (P06756 891-1048 limits assumed) above
T1 sequence (G3HZ55 21-798): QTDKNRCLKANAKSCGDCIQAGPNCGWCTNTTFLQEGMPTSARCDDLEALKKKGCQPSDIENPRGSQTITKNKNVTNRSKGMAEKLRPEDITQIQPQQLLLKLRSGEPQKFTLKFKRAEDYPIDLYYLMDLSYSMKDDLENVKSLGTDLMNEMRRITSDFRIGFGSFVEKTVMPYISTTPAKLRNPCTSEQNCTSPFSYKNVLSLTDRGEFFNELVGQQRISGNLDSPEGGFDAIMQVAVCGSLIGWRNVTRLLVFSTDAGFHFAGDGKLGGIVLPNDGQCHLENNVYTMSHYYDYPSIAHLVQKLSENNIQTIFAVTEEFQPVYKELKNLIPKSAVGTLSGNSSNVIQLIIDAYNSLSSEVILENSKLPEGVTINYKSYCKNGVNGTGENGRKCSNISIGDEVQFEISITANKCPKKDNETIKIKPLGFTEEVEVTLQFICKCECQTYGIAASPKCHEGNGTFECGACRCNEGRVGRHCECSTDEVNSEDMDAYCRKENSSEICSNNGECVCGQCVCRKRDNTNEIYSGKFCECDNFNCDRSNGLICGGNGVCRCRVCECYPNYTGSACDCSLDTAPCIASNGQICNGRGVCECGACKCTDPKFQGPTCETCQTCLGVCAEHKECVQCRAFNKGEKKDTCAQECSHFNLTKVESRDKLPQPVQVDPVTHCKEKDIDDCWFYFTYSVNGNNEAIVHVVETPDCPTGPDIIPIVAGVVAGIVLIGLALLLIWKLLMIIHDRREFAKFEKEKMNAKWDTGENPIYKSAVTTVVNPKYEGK

| SMILES | IC50 [1] [nM] | IC50 [2] [nM] |
| --- | --- | --- |
| O=C(O)C[C@H](NC(=O)CNC(=O)c1cc(NC2=NCC(F)CN2)c2cn[nH]c2c1)c1cc(Cl)cc(C(F)(F)F)c1 (stereo partly drawn) [Example 1-(b), (3S)-3-(3-chloro-5-(trifluoromethyl)phenyl)-3-(2-(4-((5-fluoro-1,4,5,6-tetrahydropyrimidin-2-yl)amino)-1H-indazole-6-carboxamido)acetamido)propanoic acid] | < 3 | < 3 |
| O=C(O)C[C@H](NC(=O)CNC(=O)c1cc(NC2=NCC(F)CN2)c2cn[nH]c2c1)c1cc(Br)cc(C(F)(F)F)c1 (stereo partly drawn) [Example 2-(b), (3S)-3-(3-bromo-5-(trifluoromethyl)phenyl)-3-(2-(4-((5-fluoro-1,4,5,6-tetrahydropyrimidin-2-yl)amino)-1H-indazole-6-carboxamido)acetamido)propanoic acid] | 3 to 10 | < 3 |
| O=C(O)C[C@H](NC(=O)CNC(=O)c1cc(NC2=NCC(F)CN2)c2cn[nH]c2c1)c1cc(I)cc(C(F)(F)F)c1 (stereo partly drawn) [Example 3-(b), (3S)-3-(2-(4-((5-fluoro-1,4,5,6-tetrahydropyrimidin-2-yl)amino)-1H-indazole-6-carboxamido)acetamido)-3-(3-iodo-5-(trifluoromethyl)phenyl)propanoic acid] | 3 to 10 | < 3 |
| Cc1cc([C@H](CC(=O)O)NC(=O)CNC(=O)c2cc(NC3=NCC(F)CN3)c3cn[nH]c3c2)cc(C(F)(F)F)c1 (stereo partly drawn) [Example 4-(b), (3S)-3-(2-(4-((5-fluoro-1,4,5,6-tetrahydropyrimidin-2-yl)amino)-1H-indazole-6-carboxamido)acetamido)-3-(3-methyl-5-(trifluoromethyl)phenyl)propanoic acid] | 3 to 10 | < 3 |
| COc1cc([C@H](CC(=O)O)NC(=O)CNC(=O)c2cc(NC3=NCC(F)CN3)c3cn[nH]c3c2)cc(C(F)(F)F)c1 (stereo partly drawn) [Example 5-(b), (3S)-3-(2-(4-((5-fluoro-1,4,5,6-tetrahydropyrimidin-2-yl)amino)-1H-indazole-6-carboxamido)acetamido)-3-(3-methoxy-5-(trifluoromethyl)phenyl)propanoic acid] | < 3 | < 3 |
| O=C(O)C[C@H](NC(=O)CNC(=O)c1cc(NC2=NCC(F)CN2)c2cn[nH]c2c1)c1cc(F)cc(C(F)(F)F)c1 (stereo partly drawn) [Example 6-(b), (3S)-3-(2-(4-((5-fluoro-1,4,5,6-tetrahydropyrimidin-2-yl)amino)-1H-indazole-6-carboxamido)acetamido)-3-(3-fluoro-5-(trifluoromethyl)phenyl)propanoic acid] | < 3 | 3 to 10 |
| O=C(O)C[C@H](NC(=O)CNC(=O)c1cc(NC2=NCC(F)CN2)c2cn[nH]c2c1)c1cc(C(F)(F)F)cc(C(F)(F)F)c1 (stereo partly drawn) [Example 7-(b), (3S)-3-(3,5-bis(trifluoromethyl)phenyl)-3-(2-(4-((5-fluoro-1,4,5,6-tetrahydropyrimidin-2-yl)amino)-1H-indazole-6-carboxamido)acetamido)propanoic acid] | < 3 | < 3 |
| O=C(O)C[C@H](NC(=O)CNC(=O)c1cc(NC2=NCC(F)CN2)c2cn[nH]c2c1)c1cc(-n2cccn2)cc(C(F)(F)F)c1 (stereo partly drawn) [Example 8-(b), (3S)-3-(3-(1H-pyrazol-1-yl)-5-(trifluoromethyl)phenyl)-3-(2-(4-((5-fluoro-1,4,5,6-tetrahydropyrimidin-2-yl)amino)-1H-indazole-6-carboxamido)acetamido)propanoic acid] | < 3 | < 3 |
| O=C(O)C[C@H](NC(=O)CNC(=O)c1cc(NC2=NCC(F)CN2)c2cn[nH]c2c1)c1cccc(C(F)(F)F)c1F (stereo partly drawn) [Example 9-(b), (3S)-3-(2-(4-((5-fluoro-1,4,5,6-tetrahydropyrimidin-2-yl)amino)-1H-indazole-6-carboxamido)acetamido)-3-(2-fluoro-3-(trifluoromethyl)phenyl)propanoic acid] | 3 to 10 | < 3 |
| O=C(O)C[C@H](NC(=O)CNC(=O)c1cc(NC2=NCC(F)CN2)c2cn[nH]c2c1)c1cccc(C(F)(F)F)c1Cl (stereo partly drawn) [Example 10-(b), (3S)-3-(2-chloro-3-(trifluoromethyl)phenyl)-3-(2-(4-((5-fluoro-1,4,5,6-tetrahydropyrimidin-2-yl)amino)-1H-indazole-6-carboxamido)acetamido)propanoic acid] | ≥ 100 | ≥ 100 |
| O=C(O)C[C@H](NC(=O)CNC(=O)c1cc(NC2=NCC(F)CN2)c2cn[nH]c2c1)c1cc(C(F)(F)F)ccc1F (stereo partly drawn) [Example 11-(b), (3S)-3-(2-(4-((5-fluoro-1,4,5,6-tetrahydropyrimidin-2-yl)amino)-1H-indazole-6-carboxamido)acetamido)-3-(2-fluoro-5-(trifluoromethyl)phenyl)propanoic acid] | 3 to 10 | < 3 |
| O=C(O)C[C@H](NC(=O)CNC(=O)c1cc(NC2=NCC(F)CN2)c2cn[nH]c2c1)c1cc(C(F)(F)F)ccc1Cl (stereo partly drawn) [Example 12-(b), (3S)-3-(2-chloro-5-(trifluoromethyl)phenyl)-3-(2-(4-((5-fluoro-1,4,5,6-tetrahydropyrimidin-2-yl)amino)-1H-indazole-6-carboxamido)acetamido)propanoic acid] | 3 to 10 | 3 to 10 |
| O=C(O)C[C@H](NC(=O)CNC(=O)c1cc(NC2=NCC(F)CN2)c2cn[nH]c2c1)c1ccc(F)c(C(F)(F)F)c1 (stereo partly drawn) [Example 13-(b), (3S)-3-(2-(4-((5-fluoro-1,4,5,6-tetrahydropyrimidin-2-yl)amino)-1H-indazole-6-carboxamido)acetamido)-3-(4-fluoro-3-(trifluoromethyl)phenyl)propanoic acid] | < 3 | < 3 |
| Cc1ccc([C@H](CC(=O)O)NC(=O)CNC(=O)c2cc(NC3=NCC(F)CN3)c3cn[nH]c3c2)cc1C(F)(F)F (stereo partly drawn) [Example 14-(b), (3S)-3-(2-(4-((5-fluoro-1,4,5,6-tetrahydropyrimidin-2-yl)amino)-1H-indazole-6-carboxamido)acetamido)-3-(4-methyl-3-(trifluoromethyl)phenyl)propanoic acid] | < 3 | < 3 |
| O=C(O)C[C@H](NC(=O)CNC(=O)c1cc(NC2=NCC(F)CN2)c2cn[nH]c2c1)c1cc(Cl)c(F)c(C(F)(F)F)c1 (stereo partly drawn) [Example 15-(b), (3S)-3-(3-chloro-4-fluoro-5-(trifluoromethyl)phenyl)-3-(2-(4-((5-fluoro-1,4,5,6-tetrahydropyrimidin-2-yl)amino)-1H-indazole-6-carboxamido)acetamido)propanoic acid] | < 3 | < 3 |
| COc1ccc([C@H](CC(=O)O)NC(=O)CNC(=O)c2cc(NC3=NCC(F)CN3)c3cn[nH]c3c2)cc1Br (stereo partly drawn) [Example 16-(b), (3S)-3-(3-bromo-4-methoxyphenyl)-3-(2-(4-((5-fluoro-1,4,5,6-tetrahydropyrimidin-2-yl)amino)-1H-indazole-6-carboxamido)acetamido)propanoic acid] | < 3 | < 3 |
